≈ marks a conversion by molar mass, not a printed value. Read-outs that look alike come from different tables or passages of the source.
Assays:
Mtb (H37Rv) = experiment: MIC on Mtb (H37Rv) in liquid; format: cell-based, Mycobacterium tuberculosis; conditions: for MIC: Mycobacterium tuberculosis
mitochondrial ROS = experiment: Mitochondrial ROS (mitoSOX) in uninfected BMDMs; format: cell-based; conditions: TMZ 500 nM 3 hours; antimycin 30 μM, rotenone 10 μM 30 minutes
Description: Mitochondrial ROS production was measured in macrophages treated with TMZ in combination with ETC inhibitors antimycin and rotenone. Rotenone inhibits Complex I (NADH coenzymeQ reductase) and antimycin is an inhibitor of Complex III (coenzyme Q: cytochrome C oxidoreductase). Uninfected BMDMs were treated with 500 nM TMZ for 3 hours. Thirty minutes prior to termination of the experiment, antimycin (30 μM) and rotenone (10 μM) were added. Menadione (60 μM, 30 mins), which causes mitochondrial depolarization, was used as a positive control. Mitochondrial ROS production was increased in samples treated with TMZ, antimycin and rotenone (FIG. 14A). However, contrasting results were observed when TMZ was used in combination with the ETC inhibitors.

BMDMs [1] = experiment: Macrophage viability (calcein-AM); format: cell-based, murine; conditions: 72 hours
Description: FIG. 4B depicts the effect of metformin and oxfenicine on macrophage viability. BMDMs were treated with the indicated concentration of compound for 72 hours, and viability was assessed using the cellular dye, calcein-AM, and normalized to untreated controls (--). Data are mean+/−SD.
Importantly, plasma concentrations of TMZ in patients treated for angina (60 mg/day) are 70-100 nM, in line with the ability of TMZ to inhibit FAO in intact hearts at 100 nM. […] BMDMs were treated with the indicated concentration of compound for 72 hours, and viability was assessed using the cellular dye, calcein-AM, and normalized to untreated controls (--).
The antimicrobial activity and FAO inhibition was analyzed for cellular toxicity. BMDMs were treated with the indicated concentration of compound for 72 hours, and viability was assessed using the cellular dye, calcein-AM, and normalized to untreated controls (--).

long-chain 3-KAT = target: T1, long-chain 3-KAT (Rattus norvegicus, UniProt Q60587); conditions: rat heart mitochondria; cited from earlier work
T1 construct: from tissue; host or cells: rat heart mitochondria
T1 sequence (Q60587 35-475): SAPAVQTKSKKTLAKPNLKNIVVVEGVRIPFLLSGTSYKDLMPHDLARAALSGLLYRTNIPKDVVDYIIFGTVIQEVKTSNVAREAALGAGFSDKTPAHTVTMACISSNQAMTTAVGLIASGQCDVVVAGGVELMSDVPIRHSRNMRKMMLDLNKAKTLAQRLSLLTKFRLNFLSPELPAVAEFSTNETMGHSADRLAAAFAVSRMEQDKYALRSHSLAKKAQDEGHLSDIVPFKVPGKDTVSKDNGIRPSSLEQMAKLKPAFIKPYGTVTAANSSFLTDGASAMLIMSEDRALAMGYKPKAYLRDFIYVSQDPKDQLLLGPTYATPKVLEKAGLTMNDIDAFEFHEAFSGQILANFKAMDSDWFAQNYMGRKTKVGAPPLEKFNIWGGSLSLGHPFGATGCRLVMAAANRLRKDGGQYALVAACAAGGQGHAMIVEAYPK
T1 sequence (Q64428 37-763 partner): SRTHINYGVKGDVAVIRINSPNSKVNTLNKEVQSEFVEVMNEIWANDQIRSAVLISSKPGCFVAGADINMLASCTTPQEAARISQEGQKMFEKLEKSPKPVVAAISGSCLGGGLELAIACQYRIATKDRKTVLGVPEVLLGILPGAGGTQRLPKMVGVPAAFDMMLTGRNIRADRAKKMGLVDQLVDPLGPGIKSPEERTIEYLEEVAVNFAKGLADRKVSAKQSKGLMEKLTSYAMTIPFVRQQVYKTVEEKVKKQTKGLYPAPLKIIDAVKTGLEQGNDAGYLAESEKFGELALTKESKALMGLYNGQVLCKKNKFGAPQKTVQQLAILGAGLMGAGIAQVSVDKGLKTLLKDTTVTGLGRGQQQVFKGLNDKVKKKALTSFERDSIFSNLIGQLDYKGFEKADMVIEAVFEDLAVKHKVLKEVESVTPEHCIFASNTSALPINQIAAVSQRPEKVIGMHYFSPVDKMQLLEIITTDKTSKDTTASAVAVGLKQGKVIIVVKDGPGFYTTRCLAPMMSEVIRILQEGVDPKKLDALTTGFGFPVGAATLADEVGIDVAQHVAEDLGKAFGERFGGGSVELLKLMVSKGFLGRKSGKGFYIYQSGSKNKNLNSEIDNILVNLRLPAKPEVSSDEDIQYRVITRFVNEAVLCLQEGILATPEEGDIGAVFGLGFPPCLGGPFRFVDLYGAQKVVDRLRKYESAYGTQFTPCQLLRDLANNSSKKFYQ

[2] = set-up: species or system mice; conditions: in vivo
Description: A pharmacokinetics (PK) study of TMZ in C57BL/6 mice was performed. […] Therefore, subcutaneous osmotic pumps were used to maintain steady state plasma levels of TMZ. A second PK study was performed using subcutaneous osmotic pumps (Alzet Osmotic Pumps) to establish the optimal infusion rate and dosing for a subsequent efficacy study. TMZ steady state exposure in mice was successfully achieved with the use of subcutaneous osmotic pumps.

total cellular ROS = experiment: Total cellular ROS (CellRox staining) in macrophages; format: cell-based
Description: Total cellular ROS levels were compared in FAO inhibitor-treated and untreated samples using CellRox (Molecular Probes) staining. Macrophages were infected as previously described and co-localization of Mth with subunits of the NADPH oxidase (p40^phox and gp91^phox/NOX2) were monitored in FAO inhibitor-treated and untreated samples. To determine whether FAO inhibition induced oxidative stress in the host, uninfected RAW 264.7 cells were treated with TMZ at 5 nM and 500 nM and ETM at 50 μM and total cellular ROS was determined at 1, 3, and 24 hours post-treatment using CellRox dye. In parallel, tert-butyl hydroperoxide (0.5 mM tBHP) was used as a positive control. The samples were imaged using confocal microscopy and the fluorescence intensity of each cell was quantified.

M. abscessus = experiment: Intracellular growth of M. abscessus in RAW264.7 cells and BMDMs (CFU); format: cell-based, Mycobacterium abscessus; conditions: RAW264.7 cells and wt BMDMs, 500 nM
Mtb = experiment: MIC against Mtb in human THP1 cells; format: cell-based, Mycobacterium tuberculosis
Description: If CPT-1 and 3-KAT are the relevant antimicrobial targets, respectively, concordance in the potency of the compounds is anticipated in the assays. […] The MIC of TMZ against Mtb in human THP1 cells was approximately […].

p62 = experiment: Autophagy induction: p62 co-localization with Mtb and p62 puncta in BMDMs; format: cell-based; conditions: 5 nM
Description: Wild type BMDMs were infected with H37Rv expressing DsRed at MOI 1:5 for 4 hours. After bacterial uptake, the culture medium was supplemented with TMZ (5 nm). At 24 hours post infection (hpi), samples were fixed and immunostained with p62 (green). Alternatively, bacterial numbers were enumerated by CFU at 3 days post infection (dpi). For IF, images were captured using a confocal microscope equipped with a 60× oil immersion objective lens. To quantify co-localation of Mtb and autophagosomes each bacteria was converted to a region of interest (ROI) and the mean fluorescence intensity of the p62 signal was measured. To assess autophagy induction, the total p62 puncta per cell in shapes that were untreated or treated with TMZ. IFN-γ, which activates autophagy, was used as a positive control.

H37Rv = experiment: Efficacy of TMZ in acute TB infection in mice (CFU in lungs and spleen); format: in vivo, Mycobacterium tuberculosis; conditions: 16.8 mg/kg/day, 2 weeks
[3] = human, in vivo, 20 mg; cited from earlier work
LC3 = experiment: Autophagy flux (LC3 with and without bafilomycin A1) in H37Rv-infected BMDMs; format: cell-based; conditions: 500 nM, 3 hours
BMDMs [4] = experiment: OCR and ECAR by SeaHorse metabolic flux assay in BMDMs; format: cell-based; conditions: wild type BMDMs, 5 nM, 3 hours
Description: (§1) Oxygen consumption rate (OCR) and extracellular acidification rate (ECAR) was measured using SeaHorse Analyzers in uninfected wild type and FAO-deficient carnitine palmitoyltransferase 2 KO (Cpt2 cKO) BMDMs treated with 5 nM TMZ. Additionally, whether FAO inhibitors promoted pro-inflammatory signaling was tested. Wild type macrophages were infected with H37Rv and treated with 5 nM TMZ for 24 and 72 hpi. Following filter sterilization, sample supernatants were examined for pro-inflammatory cytokines including, IL-1β, IL-6, TNF-α, and the anti-inflammatory cytokine IL-10.

[5] = test system: IL-6, TNF-α, IL-1α/β, and IL-10; experiment: Cytokine levels in supernatants of BMDMs; format: cell-based; conditions: wild type BMDMs, 5 nM, 24 and 72 hpi
Description: as §1

gp91phox/NOX2 = experiment: Co-localization of Mtb with NADPH oxidase subunit NOX2 in BMDMs; format: cell-based; conditions: 24 hours
FAO [6] = conditions: cited from earlier work
FAO [7] = conditions: murine and human monocyte-derived macrophages; cited from earlier work
[8] = Mtb (H37Rv) in liquid, read-out: MIC

**Q.** Which MIC (Mtb (H37Rv); [8]) does the source give for `C1CCC(C(CC2CCCCN2)C2CCCCC2)CC1` (centres unmarked) [Perhexiline, 2-(2,2-dicyclohexylethyl)piperidine] here?
**A.** > 100 µM

**Q.** With `C=C(C)[C@H]1Cc2c(ccc3c2O[C@@H]2COc4cc(OC)c(OC)cc4[C@@H]2C3=O)O1` [rotenone] as the compound, how does the “mitochondrial ROS production” value (mitochondrial ROS) read?
**A.** increased

**Q.** For `NNC(=O)c1ccncc1` [INH, isoniazid], which MIC (Mtb (H37Rv); [8]) is on record?
**A.** < 0.3 µM

**Q.** For antimycin, which “mitochondrial ROS production” value (mitochondrial ROS) is on record?
**A.** increased

**Q.** What does the source list for `COc1ccc(CN2CCNCC2)c(OC)c1OC` [Trimetazidine, 1-(2,3,4-trimethoxybenzyl)piperazine]?
**A.** macrophage toxicity (BMDMs [1]): not related to macrophage toxicity; IC50 (long-chain 3-KAT): ~75 nM; predicted free drug concentrations ([2]; C57BL/6, mouse, 16.8 mg/kg/day): 135 nM; half-life ([2]; mouse): less than an hour; MIC (Mtb (H37Rv); H37RV): 1000 µM (≈ 266 µg/mL); total cell ROS in Mtb-infected Atg5 KO BMDMs (total cellular ROS; 3 hour treatment): increased ROS signal; total cell ROS in Mtb-infected Nox2 KO BMDMs (total cellular ROS; 24 hours, 5 nM): significant increase in ROS; total cell ROS in Mtb-infected wild type BMDMs (total cellular ROS; 24 hours, 5 nM): induced ROS; M. abscessus infection (CFU) (M. abscessus): significantly decreased infection; MIC against Mtb in human THP1 cells (Mtb): approximately 50 nM; total number of p62 puncta in macrophages (p62): significantly increased; co-localization of H37Rv and p62 (p62; 24 hpi): increased; reduction in Mtb CFUs in the lungs (H37Rv; C57Bl/6 mice): 50-70%; bacterial burden in lung and spleen tissues (H37Rv; vs untreated control mice): significantly reduced bacterial burden; Cmax [3]: 313 nM; autophagy flux (LC3): No changes; ECAR (BMDMs [4]): decrease; levels of IL-6, TNF-α, IL-1α/β, and IL-10 [5]: No significant difference; co-localization of Mtb and NOX2 (gp91phox/NOX2): increased; concentration that inhibits FAO in intact hearts (FAO [6]): 100 nM; mitochondrial ROS production (mitochondrial ROS): increased

**Q.** Which MIC (Mtb (H37Rv); [8]) does the source give for `CN(C)C(=N)N=C(N)N` [Metformin, metformin] here?
**A.** > 15000 µM

**Q.** With `CCOC(=O)C1(CCCCCCOc2ccc(Cl)cc2)CO1` (centres unmarked) [Etomoxir, ethyl 2-[6-(4-chlorophenoxy)hexyl]oxirane-2-carboxylate] as the compound, how does the MIC (Mtb (H37Rv); [8]) read?
**A.** > 250 µM

**Q.** And the “direct effect on Mtb growth” value (Mtb (H37Rv); ten times the dose that inhibited intracellular Mtb)?
**A.** did not directly prevent Mtb growth

**Q.** What about the “concentration that blocks FAO in macrophages” value (FAO [7]) of the same compound?
**A.** 10 to 25 µM

— patent publication US12616691B2, “Use of fatty acid oxidation inhibitors as antimicrobials” (Washington University in St. Louis, priority 2018, dated 2026)
